{"source": "the OPERA property sets (Mansouri et al. 2018)", "data": [{"conditions": "not given", "units": {"boiling point": "°C", "melting point": "°C"}, "values": [{"smiles": "CCC(C)CC(C)=O", "note": "(centres undefined)", "boiling point": 144}, {"smiles": "CC=CC(OCC)OCC", "boiling point": 148}, {"smiles": "FC(F)(Br)C(F)(F)C(F)(F)C(F)(F)Br", "boiling point": 97}, {"smiles": "CC(C)CN1CCOCC1", "boiling point": 181, "ready biodegradability": "not readily biodegradable"}, {"smiles": "CCC(C)C(C)C", "note": "(centres undefined)", "boiling point": 89.7, "log10 biodegradation half-life (days)": 0.845, "log10 vapour pressure (mmHg)": 1.84}, {"smiles": "CC(CN1C(=O)c2cccnc2Nc2ccccc21)N(C)C", "note": "(centres undefined)", "melting point": 122}, {"smiles": "CCCCC(N)=O", "boiling point": 225, "melting point": 106}, {"smiles": "COCC1CCCO1", "note": "(centres undefined)", "boiling point": 140}, {"smiles": "N#Cc1cccc(C(F)(F)F)c1", "boiling point": 189, "melting point": 14.5}, {"smiles": "CC(C)CC(C)C(C)(C)C", "note": "(centres undefined)", "boiling point": 148}, {"smiles": "OC(c1ccccc1)c1ccc(Cl)cc1", "note": "(centres undefined)", "melting point": 60.8}, {"smiles": "C=C(CC)C(C)CC", "note": "(centres undefined)", "boiling point": 112}, {"smiles": "CCc1ccccc1-c1ccccc1", "boiling point": 266, "melting point": -6}, {"smiles": "CC1(C)CC(N)CC(C)(CN)C1", "note": "(centres undefined)", "boiling point": 247, "log10 vapour pressure (mmHg)": -1.82, "melting point": 10, "ready biodegradability": "not readily biodegradable"}, {"smiles": "CCC(CC)[N+](=O)[O-]", "ready biodegradability": "readily biodegradable"}, {"smiles": "CCN(CC)c1nc(Cl)nc(N(CC)CC)n1", "melting point": 27}, {"smiles": "CCC(C)(C)CC(C)(C)C", "boiling point": 154}, {"smiles": "C=Cc1ccco1", "boiling point": 99.5, "melting point": -94}, {"smiles": "CCOc1ccc2nc3cc(N)ccc3c(N)c2c1", "melting point": 226}, {"smiles": "CC(C)c1ccccc1C(C)C", "boiling point": 204, "log10 vapour pressure (mmHg)": -0.441, "melting point": -57, "ready biodegradability": "not readily biodegradable"}, {"smiles": "CCCNCCO", "boiling point": 183}, {"smiles": "FC(F)(F)C(Cl)CCl", "note": "(centres undefined)", "boiling point": 76.9}, {"smiles": "CN(C)CC/C=C1\\c2ccccc2CSc2ccccc21", "melting point": 56}, {"smiles": "O=C(O)c1ccc(C(F)(F)F)cc1", "melting point": 220}, {"smiles": "COC(=O)c1cc(OC)c(OC)c(OC)c1", "boiling point": 274, "melting point": 83}, {"smiles": "CCOc1cc(C(C)(C)C)ccc1C1COC(c2c(F)cccc2F)=N1", "note": "(centres undefined)", "log10 vapour pressure (mmHg)": -7.79, "melting point": 102}, {"smiles": "O=C(Cl)C(c1ccccc1)c1ccccc1", "melting point": 56.5}, {"smiles": "C=CC(CC)CC", "boiling point": 84.1, "log10 vapour pressure (mmHg)": 1.91, "melting point": -128}, {"smiles": "N#CC(C#N)=C(C#N)C#N", "melting point": 199}, {"smiles": "CCC(CC)C(C)C", "boiling point": 116, "log10 biodegradation half-life (days)": 0.778, "log10 vapour pressure (mmHg)": 1.38, "melting point": -115}, {"smiles": "COC(=O)c1cccc(C)c1", "boiling point": 221}, {"smiles": "CCC(C)OC(C)=O", "note": "(centres undefined)", "boiling point": 112, "log10 vapour pressure (mmHg)": 1.23, "melting point": -98.9, "ready biodegradability": "readily biodegradable"}, {"smiles": "CCOCN(C(=O)CCl)c1c(C)cccc1CC", "log10 Koc (L/kg)": 2.32}, {"smiles": "CCOC(=O)c1cccc(OC)c1", "boiling point": 260}, {"smiles": "O=[N+]([O-])c1cccc(CCl)c1", "melting point": 46}, {"smiles": "Cc1cc(C)ncn1", "boiling point": 159, "melting point": 25}, {"smiles": "CCOC(=O)c1cn2nc(OP(=S)(OCC)OCC)cc2nc1C", "melting point": 51}, {"smiles": "NCCc1c[nH]c2ccc(O)cc12", "melting point": 168}, {"smiles": "CC1=C(/C=C/C(C)=C/C=C/C(C)=C/C=C/C=C(C)/C=C/C=C(C)/C=C/C2=C(C)CCCC2(C)C)C(C)(C)CCC1", "melting point": 183}, {"smiles": "CC(=O)O[Si](C)(OC(C)=O)OC(C)=O", "melting point": 40.5}, {"smiles": "NCCNCCO", "boiling point": 239, "melting point": -38, "ready biodegradability": "not readily biodegradable"}, {"smiles": "CCC(Cc1c(I)cc(I)c(N)c1I)C(=O)O", "note": "(centres undefined)", "melting point": 155}, {"smiles": "Oc1ccccc1F", "boiling point": 152, "log10 Henry constant (atm·m³/mol)": -5.49, "melting point": 16.1, "ready biodegradability": "not readily biodegradable"}, {"smiles": "CC(=O)c1ccc(-n2ccnc2)cc1", "ready biodegradability": "readily biodegradable"}, {"smiles": "CCOC(=O)CC(=O)CCl", "melting point": -8}, {"smiles": "c1ccc(C2=NCCN2)cc1", "melting point": 96.5}, {"smiles": "CCc1cccc2c1CCCC2", "boiling point": 245, "melting point": -44.5}, {"smiles": "COc1ccc(CCCCO)cc1", "melting point": 3.5}, {"smiles": "O=C1CCC(c2ccccc2)O1", "note": "(centres undefined)", "boiling point": 306, "melting point": 36.5}, {"smiles": "Oc1c(F)c(F)cc(F)c1F", "boiling point": 140, "melting point": 38}, {"smiles": "COc1ccc(CO)cc1OC", "boiling point": 298}, {"smiles": "CCO[Si](C)(C)OCC", "boiling point": 114, "log10 vapour pressure (mmHg)": 1.3, "melting point": -87}, {"smiles": "CC(C)=CCC/C(C)=C/C=C/C(C)=C/C=C/C(C)=C/C=C/C=C(C)/C=C/C=C(C)/C=C/C1=C(C)CCCC1(C)C", "melting point": 178}, {"smiles": "FC(F)(F)C(=NOCC1OCCO1)c1ccc(Cl)cc1", "log10 vapour pressure (mmHg)": -3.55}, {"smiles": "Cc1ccccc1C(=O)c1ccccc1", "boiling point": 308}, {"smiles": "Fc1ccc(-c2ccccc2)cc1", "boiling point": 253, "melting point": 74.2}, {"smiles": "O=C(O)c1ccc(C(=O)O)o1", "melting point": 342}, {"smiles": "CCOC(=O)CC(C)O", "note": "(centres undefined)", "boiling point": 185}, {"smiles": "C=CCCCCCCCCCCC=C", "log10 biodegradation half-life (days)": 1.11}, {"smiles": "Cc1ccc2c(ccc3cc4ccccc4cc32)c1", "melting point": 156}, {"smiles": "CC(C)NC(=O)COC(=O)c1ccccc1", "melting point": 130}, {"smiles": "CC(=O)Nc1ccc(OCC(O)CNC(C)C)cc1", "note": "(centres undefined)", "melting point": 135}, {"smiles": "CC(Cl)(Cl)C(=O)[O-].[Na+]", "melting point": 166}, {"smiles": "O=C(O)c1cccc2cccc(C(=O)O)c12", "melting point": 260}, {"smiles": "CCCC(=O)C(C)(C)C", "boiling point": 147}, {"smiles": "CCCOC(=O)c1ccc(N)cc1", "melting point": 75}, {"smiles": "CC1OC(=O)C=C2C3=C(OC(C)(C)CC3)C(=O)C(O)=C21", "note": "(centres undefined)", "melting point": 230}, {"smiles": "C=C=CCCCC", "boiling point": 106}, {"smiles": "CCCCNCC", "boiling point": 108, "melting point": -78, "ready biodegradability": "readily biodegradable"}, {"smiles": "Cc1cccc2ccoc12", "boiling point": 190, "melting point": 109}, {"smiles": "CC(C)(C)C(C)(C)O", "boiling point": 131, "melting point": 17}, {"smiles": "CC(C)(C)c1nnc(NS(=O)(=O)c2ccc(N)cc2)s1", "melting point": 222}, {"smiles": "CCCCCCCCCC(=O)N(CCO)CCO", "ready biodegradability": "readily biodegradable"}, {"smiles": "O=C(Nc1cccc(N(CCO)CCO)c1)c1ccccc1", "ready biodegradability": "not readily biodegradable"}, {"smiles": "Cc1cc([N+](=O)[O-])c(N)c([N+](=O)[O-])c1", "melting point": 172}, {"smiles": "O=C1CCC(=O)N1Br", "melting point": 174}, {"smiles": "CC(=O)NN", "melting point": 67}, {"smiles": "OCC(c1ccccc1)c1ccccc1", "melting point": 64.5}, {"smiles": "CC1(C)COC1", "boiling point": 80.6}, {"smiles": "NC(=O)c1ccc([N+](=O)[O-])cc1Cl", "melting point": 172, "ready biodegradability": "readily biodegradable"}, {"smiles": "N#Cc1ccccc1OCC(O)CNCCNC(=O)Cc1ccc(O)cc1", "note": "(centres undefined)", "melting point": 119}, {"smiles": "O=S(=O)(O)c1ccc(O)cc1", "ready biodegradability": "readily biodegradable"}, {"smiles": "S=C=Nc1cccc2ccccc12", "melting point": 58}, {"smiles": "CCCCCCNC(=O)C=Cc1ccc(O)c(O)c1", "melting point": 142}, {"smiles": "CCNc1nc(NC(C)C)nc(SC)n1", "boiling point": 345, "log10 Koc (L/kg)": 2.59, "log10 vapour pressure (mmHg)": -5.56, "melting point": 88, "ready biodegradability": "not readily biodegradable"}, {"smiles": "CC(C)c1ccc(NC(=O)N(C)C)cc1", "log10 vapour pressure (mmHg)": -7.61, "melting point": 158}, {"smiles": "NCC1CCCC(CN)C1", "note": "(centres undefined)", "boiling point": 220, "ready biodegradability": "not readily biodegradable"}, {"smiles": "Cc1ccc(S(=O)(=O)Oc2c(C(=O)c3ccc(Cl)cc3Cl)c(C)nn2C)cc1", "melting point": 118}, {"smiles": "CC(=O)CC(=O)C(=O)O", "melting point": 99.5}, {"smiles": "CCOP(=S)(S)OCC", "melting point": -10, "ready biodegradability": "not readily biodegradable"}, {"smiles": "OC(Cc1ccccc1)(c1ccccc1)c1ccccc1", "melting point": 89.5}, {"smiles": "CC(C)COP(=O)(OCC(C)C)OCC(C)C", "boiling point": 264}, {"smiles": "OCCOc1ccc(Cl)cc1Cl", "log10 vapour pressure (mmHg)": -3.7}, {"smiles": "NNC=O", "melting point": 55}, {"smiles": "CCCCCCCCCCCCCC(=O)OCc1ccccc1", "melting point": 20.5}, {"smiles": "Brc1ccc(Oc2ccc(Br)cc2Br)c(Br)c1", "log10 Koa": 10.5, "log10 vapour pressure (mmHg)": -7.15, "logP": 6.81}, {"smiles": "COC(=O)c1ccc(OC)c(OC)c1", "boiling point": 283, "melting point": 60.8}, {"smiles": "NS(=O)(=O)c1cc2c(cc1Cl)NC(Cc1ccc(F)cc1)NS2(=O)=O", "note": "(centres undefined)", "melting point": 239}, {"smiles": "CC(C)CCCCCCO", "boiling point": 206, "melting point": 64.5}, {"smiles": "COC(=O)CSc1cc(/N=c2\\sc(=O)n3n2CCCC3)c(F)cc1Cl", "log10 vapour pressure (mmHg)": -8.48, "melting point": 106}, {"smiles": "NC(=O)c1ccc(Br)cc1", "melting point": 192}, {"smiles": "CCCCCCC=O", "boiling point": 153, "log10 Henry constant (atm·m³/mol)": -3.57, "log10 vapour pressure (mmHg)": 0.546, "melting point": -43.3}, {"smiles": "CC(=O)Nc1ccc(Cl)cc1", "boiling point": 333, "melting point": 179}, {"smiles": "CN1C(C(=O)Nc2ccccn2)=C(O)c2ccccc2S1(=O)=O", "melting point": 199}, {"smiles": "CCCCCCCCCCCCCCCCCCCCCCCCCCO", "melting point": 80, "ready biodegradability": "readily biodegradable"}, {"smiles": "Cc1cc(C)c2ccccc2c1C", "melting point": 55.5}, {"smiles": "CCCCCCC1CCCCC1", "boiling point": 224, "log10 vapour pressure (mmHg)": -0.943, "melting point": -43}, {"smiles": "CCc1cccc(C)c1N(COC(C)C)C(=O)CCl", "log10 vapour pressure (mmHg)": -4.52, "melting point": 21.6}, {"smiles": "Cc1cc(Br)ccc1[N+](=O)[O-]", "melting point": 78}, {"smiles": "FC(F)(F)C1(F)OC1(F)F", "note": "(centres undefined)", "boiling point": -27.4}]}, {"conditions": "fish", "values": [{"smiles": "CC(C)CN1CCOCC1", "log10 BCF": 0.25}, {"smiles": "OC(c1ccccc1)c1ccc(Cl)cc1", "note": "(centres undefined)", "log10 BCF": 1.79, "log10 biotransformation half-life (days)": -0.89}, {"smiles": "CC(C)c1ccccc1C(C)C", "log10 BCF": 2.14}, {"smiles": "NCCNCCO", "log10 BCF": 0.46}, {"smiles": "CCOP(=S)(S)OCC", "log10 BCF": 0.7}, {"smiles": "Brc1ccc(Oc2ccc(Br)cc2Br)c(Br)c1", "log10 BCF": 5.84, "log10 biotransformation half-life (days)": 1.6}, {"smiles": "CCCCCCC1CCCCC1", "log10 biotransformation half-life (days)": 0.7}]}]}
